Source: patent publication US9181309B1, “Peptide regulation of maize defense responses” (The United States of America, as represented by the …, priority 2011, dated 2015)

Legend:
maize leaf transcripts = assay: Microarray analysis of transcript levels in ZmPep3 vs water-treated leaves; format: in vivo, Zea mays; conditions: leaves treated for 12 h
Description: The gene transcripts shown in FIG. 4 are a subset of the defense-related genes found to be induced by ZmPEP3 peptide in the excised leaf assays. Including these, a total of twenty genes have been identified as ZmPEP3-responsive. All can be classified as pertaining to four broad categories of defense-related genes; those encoding proteins that are directly antimicrobial, those encoding proteins that synthesize secondary metabolites associated with defense, those encoding proteins that are involved in reactive oxygen species-based signal transduction and detoxification, and those that encode biosynthetic proteins for the two main plant small molecule hormone regulators of defense, ethylene and oxylipins. To obtain a more global perspective of gene expression regulated by ZmPEP3, a microarray experiment was performed to compare expression levels in ZmPEP3 vs. water-treated leaves after […]. […] In FIG. 7, real-time quantification of expression levels of genes associated with direct and indirect herbivore defenses confirms that ZmPEP3 is a strong regulator of both defense responses. […] FIG. 8 lists defense-associated genes discovered to be induced by the ZmPEP3.
A microarray analysis of transcript levels in leaves that were treated for 12 h with either water or ZmPep3 was employed to better characterize the breadth of ZmPep3-regulated responses. […]

Cotesia marginiventris = assay: Olfactometer assay of parasitoid wasp attraction to pretreated leaves; format: in vivo
Description: The generalist parasitoid Cotesia marginiventris attacks many Lepidopteran species including S. exigua and is attracted to herbivory-induced maize volatiles (Turlings et al., Science 250:1251, 1990). Precisely which components are attractive has been difficult to determine, and the wasps respond strongly to unidentified minor components when subjected to gas chromatograph-coupled electroantennography (Gouinguene et al., J Chem Ecol. 31:1023, 2005). To determine whether the ZmPep3-induced blend was attractive to naïve C. marginiventris, olfactometer assays were conducted with leaves pretreated with ZmPep3, Gln-18:3 or water for 16 h. To ensure that any preference was due to elicited plant responses and not to an inherent attraction or repellence to any treatment substance, leaves treated at time of assay were used as controls. […] Thus, ZmPep3-regulated responses are sufficient to generate effective indirect defenses against Lepidopteran herbivores.

[1] = tested on: herbivore defense genes in maize leaves; assay: Real time qPCR / qRT-PCR of defense and phytohormone biosynthesis genes in treated leaves
S. exigua = assay: Larval growth on peptide-pretreated leaves; format: in vivo, Spodoptera exigua; conditions: compared to untreated or water-treated leaves
Method: To assess the role of ZmPep3-induced direct defenses, S. exigua growth on peptide-pretreated leaves was evaluated. […] This effect was expected given the potency of ZmPep3-induced proteins and benzoxazinoids against herbivores.

[2] = tested on: jasmonic acid and ethylene production in maize leaves; assay: Phytohormone (JA, ET) production in treated leaves; format: in vivo, Zea mays
Description: A further embodiment is ZmPEP3 regulated production of defense-related metabolites. The elicitor-induced phytohormones JA and ethylene (ET) function as signals integral to initiation of protective responses against pathogens and herbivores (Howe and Jander, Annu Rev Plant Biol. 59:41, 2008).

[3] = equivalent molar concentrations
[4] = low equivalent quantities of elicitor
[5] = real-time quantification, peptide-treated leaves

ACC Oxidase and AOC transcript, ZmPep3-treated compared to Gln-18:3-treated leaves [1, 4]: greater quantities of transcript
upregulation of genes encoding proteinase inhibitor proteins [1, 5]: more than a thousand-fold
Substance: ZmPEP3: 23 amino acid maize plant elicitor peptide TRTPPWPPCPPEEGSGGNGGSHN (SEQ ID NO: 3) (Zea mays)
BX1 and BX2 microarray probe sets (maize leaf transcripts): upregulated
SerPIN probe set in microarray (maize leaf transcripts): most highly upregulated probe set
wasps attracted to ZmPep3-pretreated vs water-pretreated leaves (Cotesia marginiventris; 16 h pretreatment): more wasps were attracted
wasp preference for leaves pretreated 16 h vs leaves treated at time of assay (Cotesia marginiventris; naive C. marginiventris): strongly preferred
BX1 and BX2 expression by qRT-PCR ([1]; 12 h post-treatment): expressed
TPS10 and TPS23 gene expression, ZmPep3 versus Gln-18:3 [1, 3]: more strongly induced
expression of genes encoding Terpene Synthases (TPS) 10 and 23 [1, 3]: strongly activate expression
SerPIN and WIP1 expression by qRT-PCR ([1]; in vivo): highly expressed
expression of AAMT1 and IGL genes ([1]; in vivo): induced
accumulation of transcripts for ACC Oxidase, Allene Oxide Synthase and Allene Oxide Cyclase [1, 4]: significantly increased accumulation of transcripts
upregulation of genes encoding terpene synthases [1, 5]: more than a thousand-fold
less biomass gain of second instar larvae (S. exigua): 40%
jasmonic acid accumulation in leaves ([2]; ZmPEP3-treated leaves): found to accumulate
JA and ET increases, ZmPep3 compared to Gln-18:3 ([2]; low equivalent quantities): greater magnitude and longer duration
JA and ET synthesis ([2]; low equivalent quantities of either elicitor): elicitation of JA and ET synthesis
